Reference: PubChem BioAssay AID330 (DTP/NCI, 2004)
“And” between values parts separate entries of the source, which are not always exact repeats. Equal entries are not always repeated. Inconclusive results and toxic doses are left out. How the source made its calls: active means survival T/C of 150% or more; inactive means T/C below 125% in these data.

Test system: P388 leukemia ip, CD2F1 mice, survival T/C
Test: NCI In Vivo Anticancer Drug Screen. Data for tumor model P388 Leukemia (intraperitoneal) in CD2F1 (CDF1) mice
Conditions: endpoint: median survival time, higher = longer survival
Procedure, shortened: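 Mice carrying the transplanted tumor received test compound or vehicle. Survival was recorded in each group, and the value is the treated-group measurement divided by that of the vehicle-treated control group.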

[1] = dose: 60.0 mg/kg/injection, schedule: Q01DX005 (ip), vehicle: Klucel (hydroxypropylcellulose) (HPC)
[2] = dose: 120.0 mg/kg/injection, schedule: Q01DX005 (ip), vehicle: Klucel (hydroxypropylcellulose) (HPC)
[3] = dose: 6.25 mg/kg/injection, schedule: Q01DX005 (ip), vehicle: saline with Tween-80
[4] = dose: 12.5 mg/kg/injection, schedule: Q01DX005 (ip), vehicle: saline with Tween-80
[5] = dose: 25.0 mg/kg/injection, schedule: Q01DX005 (ip), vehicle: saline with Tween-80
[6] = dose: 50.0 mg/kg/injection, schedule: Q01DX005 (ip), vehicle: saline with Tween-80
[7] = dose: 100.0 mg/kg/injection, schedule: Q01DX005 (ip), vehicle: saline with Tween-80
[8] = dose: 200.0 mg/kg/injection, schedule: Q01DX005 (ip), vehicle: saline with Tween-80
[9] = dose: 200.0 mg/kg/injection, schedule: Q04DX003 (ip), vehicle: Klucel (hydroxypropylcellulose) (HPC)

Measured: T/C

COc1cc(/C=N/N2CC(=O)N(c3cccc(Cl)c3)CC2=O)cc(OC)c1
inactive: dose: 7.5 mg/kg/injection, schedule: Q01DX005 (ip), vehicle: saline with Tween-80 95 % of control | dose: 15.0 mg/kg/injection, schedule: Q01DX005 (ip), vehicle: saline with Tween-80 96 % of control | dose: 30.0 mg/kg/injection, schedule: Q01DX005 (ip), vehicle: saline with Tween-80 94 % of control

CC(=O)NC1C(Nc2ccc(S(=O)(=O)Nc3ccnn3-c3ccccc3)cc2)OC(CO)C(O)C1O (configuration not stated)
inactive: dose: 50.0 mg/kg/injection, schedule: Q01DX005 (ip), vehicle: saline 108 % of control | dose: 100.0 mg/kg/injection, schedule: Q01DX005 (ip), vehicle: saline 100 % of control | dose: 200.0 mg/kg/injection, schedule: Q01DX005 (ip), vehicle: saline 106 % of control

O=C1CCC2(CC(Br)C(=O)c3ccccc32)C(=O)N1 (configuration not stated)
inactive: [1] 113 % of control | [2] 113 % of control

CCCCN(CCCC)C(=N)c1cc(OC)ccc1OC
inactive: dose: 3.12 mg/kg/injection, schedule: Q01DX005 (ip), vehicle: saline 101 % of control | dose: 6.25 mg/kg/injection, schedule: Q01DX005 (ip), vehicle: saline 100 % of control

O=C(NN1C(=O)CS(=O)(=O)C1c1ccccc1F)c1ccncc1 (configuration not stated)
inactive: [3] 102 % of control | [4] 98 % of control | [5] 99 % of control | [6] 97 % of control | [7] 90 % of control | [8] 97 % of control

CC1(C)OOC(C)(O)C1Br (configuration not stated)
inactive: dose: 50.0 mg/kg/injection, schedule: Q04DX003 (ip), vehicle: saline 95 % of control | dose: 100.0 mg/kg/injection, schedule: Q04DX003 (ip), vehicle: saline 103 % of control | dose: 200.0 mg/kg/injection, schedule: Q04DX003 (ip), vehicle: saline 95 % of control

CC(C)S(=O)(=O)c1s[nH]c(=O)c1-c1ccccc1
inactive: dose: 50.0 mg/kg/injection, schedule: Q01DX009 (ip), vehicle: Klucel (hydroxypropylcellulose) (HPC) 109 % of control | dose: 100.0 mg/kg/injection, schedule: Q01DX009 (ip), vehicle: Klucel (hydroxypropylcellulose) (HPC) 107 % of control | dose: 200.0 mg/kg/injection, schedule: Q01DX009 (ip), vehicle: Klucel (hydroxypropylcellulose) (HPC) 101 % of control

CN(C)c1ccc2[nH]c3c(C(=O)O)cc(=O)c(=O)c=3oc2c1
inactive: [6] 108 % of control | [7] 100 % of control

Cc1ccc(CN2CC(=O)N3Cc4ccccc4CN3C(=O)C2)cc1
inactive: [6] 103 % of control | [7] 116 % of control | [8] 98 % of control

COc1cccc2c1C(=O)c1c(O)c3c(c(O)c1C2=O)CC(O)(c1csc(-c2ccncc2)n1)CC3O (configuration not stated)
inactive: dose: 1.56 mg/kg/injection, schedule: Q01DX009 (ip), vehicle: other 106 % of control | dose: 3.13 mg/kg/injection, schedule: Q01DX009 (ip), vehicle: other 105 % of control | dose: 6.25 mg/kg/injection, schedule: Q01DX009 (ip), vehicle: other 104 % of control | dose: 12.5 mg/kg/injection, schedule: Q01DX009 (ip), vehicle: other 106 % of control | dose: 25.0 mg/kg/injection, schedule: Q01DX009 (ip), vehicle: other 113 % of control and 116 % of control | dose: 50.0 mg/kg/injection, schedule: Q01DX009 (ip), vehicle: other 107 % of control | dose: 100.0 mg/kg/injection, schedule: Q01DX009 (ip), vehicle: other 102 % of control

CCOC(=O)CC1(C)OCCO1
inactive: dose: 50.0 mg/kg/injection, schedule: Q01DX009 (ip), vehicle: saline 98 % of control | dose: 100.0 mg/kg/injection, schedule: Q01DX009 (ip), vehicle: saline 99 % of control | dose: 200.0 mg/kg/injection, schedule: Q01DX009 (ip), vehicle: saline 99 % of control | dose: 400.0 mg/kg/injection, schedule: Q01DX009 (ip), vehicle: saline 101 % of control

CN(C)C(=O)C1OC1(C)c1ccccc1 (configuration not stated)
inactive: dose: 100.0 mg/kg/injection, schedule: Q04DX003 (ip), vehicle: Klucel (hydroxypropylcellulose) (HPC) 103 % of control | [9] 108 % of control | dose: 400.0 mg/kg/injection, schedule: Q04DX003 (ip), vehicle: Klucel (hydroxypropylcellulose) (HPC) 117 % of control

CC12CCC(Cl)CC1=CCC1C2CCC2(C)C1CCCN2CCCl (configuration not stated)
inactive: dose: 6.25 mg/kg/injection, schedule: Q01DX001 (ip), vehicle: saline 99 % of control | dose: 12.5 mg/kg/injection, schedule: Q01DX001 (ip), vehicle: saline 98 % of control | dose: 25.0 mg/kg/injection, schedule: Q01DX001 (ip), vehicle: saline with Tween-80 109 % of control | dose: 25.0 mg/kg/injection, schedule: Q01DX001 (ip), vehicle: saline 98 % of control and 104 % of control

CCCCNc1cc(C(F)(F)F)cc(N)c1N
inactive: dose: 50.0 mg/kg/injection, schedule: Q01DX005 (ip), vehicle: saline + Tween-80 + alcohol 105 % of control | dose: 100.0 mg/kg/injection, schedule: Q01DX005 (ip), vehicle: saline + Tween-80 + alcohol 108 % of control | dose: 200.0 mg/kg/injection, schedule: Q01DX005 (ip), vehicle: saline + Tween-80 + alcohol 109 % of control

CN1C(=O)N(C)[C@@H]2CC(=O)c3ccc(C(F)(F)F)cc3N2C1=O
inactive: [1] 101 % of control | [2] 107 % of control | dose: 240.0 mg/kg/injection, schedule: Q01DX005 (ip), vehicle: Klucel (hydroxypropylcellulose) (HPC) 103 % of control

Cc1cc(C(C#N)c2ccc(Cl)cc2)c(Cl)cc1NC(=O)c1cc(I)cc(I)c1O (configuration not stated)
inactive: [3] 102 % of control | [4] 94 % of control | [5] 88 % of control

CC(C)C(NC(=O)OC(C)(C)C)C(=O)ON1C(=O)CCC1=O (configuration not stated)
inactive: dose: 50.0 mg/kg/injection, schedule: Q01DX009 (ip), vehicle: saline with Tween-80 118 % of control | dose: 100.0 mg/kg/injection, schedule: Q01DX009 (ip), vehicle: saline with Tween-80 111 % of control | dose: 200.0 mg/kg/injection, schedule: Q01DX009 (ip), vehicle: saline with Tween-80 99 % of control

COc1ccc(/C=N/NC(=O)COCC(=O)N/N=C/c2ccc(OC)cc2)cc1
inactive: [6] 100 % of control | [7] 88 % of control | [8] 91 % of control

ClC(Cl)(Cl)c1cccc(C(Cl)(Cl)Cl)c1
inactive: dose: 132.0 mg/kg/injection, schedule: Q04DX003 (ip), vehicle: Klucel (hydroxypropylcellulose) (HPC) 113 % of control | [9] 100 % of control | dose: 264.0 mg/kg/injection, schedule: Q04DX003 (ip), vehicle: saline with Tween-80 95 % of control | dose: 300.0 mg/kg/injection, schedule: Q04DX003 (ip), vehicle: Klucel (hydroxypropylcellulose) (HPC) 113 % of control | dose: 400.0 mg/kg/injection, schedule: Q04DX003 (ip), vehicle: saline with Tween-80 91 % of control | dose: 600.0 mg/kg/injection, schedule: Q04DX003 (ip), vehicle: saline with Tween-80 108 % of control

COC(=O)c1cc(CC[N+](C)(C)Cc2ccccc2)c2ccccn12
inactive: dose: 6.25 mg/kg/injection, schedule: Q04DX002 (ip), vehicle: saline 104 % of control | dose: 12.5 mg/kg/injection, schedule: Q04DX002 (ip), vehicle: saline 96 % of control | dose: 25.0 mg/kg/injection, schedule: Q04DX002 (ip), vehicle: saline 106 % of control

COc1cc2c(c(C3(O)C(=O)N(C)c4ccccc43)c1OC)OCO2 (configuration not stated)
inactive: dose: 60.0 mg/kg/injection, schedule: Q01DX005 (ip), vehicle: saline with Tween-80 101 % of control | dose: 120.0 mg/kg/injection, schedule: Q01DX005 (ip), vehicle: saline with Tween-80 98 % of control | dose: 240.0 mg/kg/injection, schedule: Q01DX005 (ip), vehicle: saline with Tween-80 98 % of control
